Consider one molecule from patent US20250066864A1, “METHODS FOR IDENTIFYING ADAR1 INHIBITORS, AND COMPOSITIONS AND METHODS OF USE IN TREATING CANCER” (The Wistar Institute of Anatomy and Biology, priority 2021, published 2025).

Read-outs that look alike come from different tables or passages of the source.

This assay deals with T1, ADAR1p110 (Homo sapiens, UniProt P55265).
T1 construct: HAT (N); FLAG (alternative preparation, not on the same molecule as HAT) (N); made in house; host or cells: Sf9 insect cells, baculovirus
T1 sequence (P55265 1-931 isoform P55265-5): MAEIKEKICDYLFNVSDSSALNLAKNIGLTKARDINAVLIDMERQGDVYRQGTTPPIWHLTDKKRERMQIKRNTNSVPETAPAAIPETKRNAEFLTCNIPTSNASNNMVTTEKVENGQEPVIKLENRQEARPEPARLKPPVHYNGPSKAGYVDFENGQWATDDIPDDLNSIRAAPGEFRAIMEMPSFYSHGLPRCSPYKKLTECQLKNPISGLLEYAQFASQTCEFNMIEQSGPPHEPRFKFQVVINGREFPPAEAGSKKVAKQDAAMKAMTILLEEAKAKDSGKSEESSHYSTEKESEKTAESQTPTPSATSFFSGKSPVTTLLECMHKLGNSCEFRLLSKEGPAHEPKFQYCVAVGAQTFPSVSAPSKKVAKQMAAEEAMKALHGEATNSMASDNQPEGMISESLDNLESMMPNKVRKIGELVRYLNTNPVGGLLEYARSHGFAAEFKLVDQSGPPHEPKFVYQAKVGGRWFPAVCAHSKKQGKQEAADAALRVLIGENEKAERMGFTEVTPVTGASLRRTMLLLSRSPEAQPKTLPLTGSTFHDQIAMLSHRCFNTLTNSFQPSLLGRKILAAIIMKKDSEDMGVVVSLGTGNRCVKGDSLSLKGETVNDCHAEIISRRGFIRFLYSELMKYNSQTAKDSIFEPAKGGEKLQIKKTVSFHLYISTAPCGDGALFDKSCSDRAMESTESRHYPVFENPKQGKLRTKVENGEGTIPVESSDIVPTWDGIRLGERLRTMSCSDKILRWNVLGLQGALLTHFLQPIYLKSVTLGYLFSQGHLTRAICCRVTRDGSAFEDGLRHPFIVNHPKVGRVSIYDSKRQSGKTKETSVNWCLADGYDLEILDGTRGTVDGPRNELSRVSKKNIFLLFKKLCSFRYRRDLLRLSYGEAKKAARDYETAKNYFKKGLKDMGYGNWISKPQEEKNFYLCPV
As to the kind of experiment: in vitro editing assay with recombinant ADAR1p110 and dsRNA or DNA:RNA substrates. The class given is biochemical. On the procedure:
FIG. 26A-FIG. 26B show determination of IC50 by in vitro editing assay. In vitro editing assay using purified ADAR1p110 protein and two different substrates, matched (left) and mismatched (right) dsRNAs, was conducted in the presence of varying concentrations of compound #1 (FIG. 26A) or #13 (FIG. 26B) in order to estimate IC50 values for these compounds. In vitro editing was carried out using HAT-ADAR1p110 or HAT-ADAR2 recombinant protein (10 nM) and two different dsRNA substrates carrying a part of the CDK13 gene sequence (5 nM) at 37° C. for 2 hrs as described previously (12). Compounds were dissolved in 100% DMSO. The in vitro assay contained DMSO at final concentration of 16%.
The in vitro editing reaction mixture, containing 5 nM of telomere RNA:RNA duplex substrates and 75 nM of HAT-ADAR1p110-WT, FLAG-ADAR1p110-WT, or HA-ADAR1p110-EAA protein, was incubated at 37° C. for 2 h in in vitro editing buffer I (20 mM HEPES-KOH pH 7.5, 100 mM NaCl, 0.01% NP-40, 5% glycerol, 1 mM DTT). For editing of RNA:DNA hybrid substrates, in vitro editing buffer II (20 mM HEPES-KOH pH 7.5, 20 mM NaCl, 0.01% NP-40, 5% glycerol, 1 mM DTT) was used. Edited RNA or DNA strands were purified using Dynabeads MyOne Streptavidin C1 (Thermo Fisher Scientific). To remove opposite RNA or DNA strands, rNase H (NEB) or TURBO dNase (Thermo Fisher Scientific) was used, respectively. For sequencing of edited substrates, reverse transcription-PCR was carried out for RNA strands, while PCR was carried out for DNA strands. RT reactions were carried out using SuperScript III Reverse Transcriptase (Thermo Fisher Scientific), and PCR reactions were performed using Platinum Taq DNA polymerase (Thermo Fisher Scientific). PCR products were sequenced using a specific sequencing primer, and the ratio of A and G peaks in the chromatograms were analyzed by CodonCode Aligner (CodonCode Corporation).
The 54 compounds identified in the high-throughput screen were further tested in the in vitro editing assay described in Examples 1 and 2. The in vitro editing reaction mixture, containing 5 nM of telomere RNA:RNA duplex substrates and 75 nM of HAT-ADAR1p110-WT, FLAG-ADAR1p110-WT, or HA-ADAR1p110-EAA protein, was incubated at 37° C. for 2 h in in vitro editing buffer I (20 mM HEPES-KOH pH 7.5, 100 mM NaCl, 0.01% NP-40, 5% glycerol, 1 mM DTT) with 10 microM test compound. For editing of RNA:DNA hybrid substrates, in vitro editing buffer II (20 mM HEPES-KOH pH 7.5, 20 mM NaCl, 0.01% NP-40, 5% glycerol, 1 mM DTT) was used. Edited RNA or DNA strands were purified using Dynabeads MyOne Streptavidin C1 (Thermo Fisher Scientific). To remove opposite RNA or DNA strands, Rnase H (NEB) or TuRBO Dnase (Thermo Fisher Scientific) was used, respectively. For sequencing of edited substrates, reverse transcription-PCR was carried out for RNA strands, while PCR was carried out for DNA strands. RT reactions were carried out using SuperScript III Reverse Transcriptase (Thermo Fisher Scientific), and PCR reactions were performed using Platinum Taq DNA polymerase (Thermo Fisher Scientific). PCR products were sequenced using a specific sequencing primer, and the ratio of A and G peaks in the chromatograms were analyzed by CodonCode Aligner (CodonCode Corporation).

As for `N#Cc1ccc(NC(=O)c2sc3ccccc3c2Cl)cc1` [Compound #13, 3-chloro-N-(4-cyanophenyl)-1-benzothiophene-2-carboxamide], the IC50 runs as follows: (DNA:RNA mismatched hybrid substrate, read-out: IC50 estimated by in vitro editing assay, DNA:mmRNA) 30 to 100 µM; (dsRNAs (matched, mismatched) and DNA:RNA hybrids, read-out: IC50 values for ADAR1p110) 7 to 40 µM; (matched dsRNA substrate, read-out: IC50 estimated by in vitro editing assay, RNA:RNA) 3 µM; (mismatched dsRNA substrate, adenosine position 2, read-out: IC50 estimated by in vitro editing assay, RNA:mmRNA, Position 2) 21 µM; (mismatched dsRNA substrate, adenosine position 5, read-out: IC50 estimated by in vitro editing assay, RNA:mmRNA, Position 5) 8.2 µM; (mismatched dsRNA substrate, adenosine position 6, read-out: IC50 estimated by in vitro editing assay, RNA:mmRNA, Position 6) 3.8 µM. Further, the “inhibition of editing of A:U matched dsRNA” value (matched dsRNA substrate, FIG. 25C, 10 microM test compound) is reported as “preferentially inhibited matched adenosines”.

What is called IC50 is the concentration at which inhibition is half-maximal.
